Like-named read-outs stand apart in the source and are kept apart here.
Tests used:
human CB1 receptor [1] = molecular target: T1, human CB1 receptor (Homo sapiens, UniProt P21554); design: method as in PMID 27429655; conditions: previous study; cited from earlier work
T1 construct: expressed in transfected cells; host or cells: CHO cells (membrane preparations)

human GPR55 [2] = molecular target: T2, human GPR55 (Homo sapiens, UniProt Q9Y2T6); conditions: previous study; cited from earlier work
T2 construct: host or cells: CHO cells
T2 sequence (Q9Y2T6 whole entry): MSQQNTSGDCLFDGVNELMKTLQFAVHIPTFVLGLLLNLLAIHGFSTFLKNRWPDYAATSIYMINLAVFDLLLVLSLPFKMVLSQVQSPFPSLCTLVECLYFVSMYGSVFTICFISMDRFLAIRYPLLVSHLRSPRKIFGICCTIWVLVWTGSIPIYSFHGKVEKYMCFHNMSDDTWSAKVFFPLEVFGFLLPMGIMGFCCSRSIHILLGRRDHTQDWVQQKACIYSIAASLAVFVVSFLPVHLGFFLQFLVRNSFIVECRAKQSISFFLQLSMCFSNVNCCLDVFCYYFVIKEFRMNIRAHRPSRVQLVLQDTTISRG

CB1 receptor [3] = conditions: membrane potential assay, cited from earlier work
human CB1 receptor [4] = molecular target: T1, human CB1 receptor; experiment: cAMP accumulation assay, CHO cells stably expressing CB1; assay type: cell-based
Protocol: (§1) cAMP accumulation assays were performed also as previously described. Briefly, CHO cells stably expressing the respective human CB receptor subtype CB1 or CB2 were seeded overnight. […] After incubation for 15 min the buffer was removed, and the cells were lyzed. The amount of cAMP was determined in a radioligand binding assay by incubating 50 µL of the cell lysate with 3 nM [^3H]cAMP in the presence of protein preparations from bovine adrenal glands (cAMP binding protein). Bound and unbound radioligand were separated by rapid filtration through GF/B filters, and radioactivity was determined by liquid scintillation counting. To test for antagonistic activity, test compounds were added to Hank’s buffered salt solution (HBSS) containing 10% dimethyl sulfoxide (DMSO), 10 min after the application of Ro-20-1724, and the mixture was incubated for 20 min at 37 °C.
(§2) As a next step, we investigated the compounds in cAMP accumulation assays, to obtain information on their functionality (Fig. 3). CB receptors are Gi protein-coupled and thus reduce the levels of cAMP in the cells upon activation.

human CB2 receptor [5] = molecular target: T3, human CB2 receptor (Homo sapiens, UniProt P34972); experiment: cAMP accumulation assay, CHO cells stably expressing CB2; assay type: cell-based
T3 construct: expressed in transfected cells; host or cells: CHO cells (membrane preparations)
T3 sequence (P34972 whole entry): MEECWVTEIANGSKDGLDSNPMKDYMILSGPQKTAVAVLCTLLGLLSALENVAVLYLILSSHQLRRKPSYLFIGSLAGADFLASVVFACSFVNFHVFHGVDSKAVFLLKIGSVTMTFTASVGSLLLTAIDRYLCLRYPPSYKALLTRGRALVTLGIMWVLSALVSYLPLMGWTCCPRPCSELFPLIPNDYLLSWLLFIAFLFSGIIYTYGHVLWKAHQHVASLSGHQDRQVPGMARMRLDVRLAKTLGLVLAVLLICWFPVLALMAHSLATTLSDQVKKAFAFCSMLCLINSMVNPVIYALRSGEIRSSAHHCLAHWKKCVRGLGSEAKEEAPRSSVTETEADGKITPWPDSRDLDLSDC
Protocol: as §1, §2

human GPR18 = molecular target: T4, human GPR18 (Homo sapiens, UniProt Q14330); experiment: β-Arrestin PathHunter assay, recombinant CHO cells expressing GPR18; assay type: cell-based; conditions: for Human GPR18 % activation / Human GPR18 % inhibition: value in parentheses
T4 construct: host or cells: CHO cells
T4 sequence (Q14330 1-331): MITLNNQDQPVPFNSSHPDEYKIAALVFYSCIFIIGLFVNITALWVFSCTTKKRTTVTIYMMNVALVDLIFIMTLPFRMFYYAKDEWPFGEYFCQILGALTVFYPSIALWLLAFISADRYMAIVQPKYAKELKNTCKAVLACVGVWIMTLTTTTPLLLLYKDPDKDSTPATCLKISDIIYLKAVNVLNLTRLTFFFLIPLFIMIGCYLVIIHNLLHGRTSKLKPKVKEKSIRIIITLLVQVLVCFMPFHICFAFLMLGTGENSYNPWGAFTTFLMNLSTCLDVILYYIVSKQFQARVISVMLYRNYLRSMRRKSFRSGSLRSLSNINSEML
Protocol: (§3) β-Arrestin assays were performed in recombinant CHO cells expressing either the human GPR18 or the human GPR55 as described before using the β-galactosidase enzyme fragment complementation technology (β-arrestin PathHunter™ assay; DiscoverX, Fremont, CA, USA).
(§4) The orphan receptors GPR18 and GPR55 can interact with certain natural and synthetic cannabinoids. […] Therefore, we investigated the new series of indole, indazole, benzimidazole and carbazole-derived structures in β-arrestin assays at GPR18 and GPR55 (Table 2). […] For the lipophilic substitutions, the following rank order of potency was observed: ethyl > methyl > chloro > fluoro. Therefore, it can be concluded that a lipophilic substitution in position 4 of the naphthyl residue was a requirement for GPR55 inhibition.

human CB1 receptor [6] = molecular target: T1, human CB1 receptor; experiment: biochemical; assay type: binding; conditions: [3H]CP55,940 0.1 nM, CHO cell membranes; read-out: Ki ± SEM Human CB1
CB2 receptor [7] = conditions: membrane potential assay, cited from earlier work
rats = system: rats; design: method as in PMID 27421060; conditions: cited from earlier work
human GPR55 [8] = molecular target: T2, human GPR55; experiment: β-Arrestin PathHunter assay, recombinant CHO cells expressing GPR55; assay type: cell-based; conditions: for Human GPR55 % inhibition: antagonist mode versus LPI 1 µM; for Human GPR55 % inhibition / Human GPR55 % activation: value in parentheses
Protocol: as §3, §4

human CB2 receptor [9] = molecular target: T3, human CB2 receptor; experiment: biochemical; assay type: binding; conditions: [3H]CP55,940 0.1 nM, CHO cell membranes; read-out: Ki ± SEM Human CB2
CB1 receptor [10] = molecular target: CB1 receptor; design: method as in Bowden et al. [43]; conditions: HTRF cAMP accumulation; ref Bowden et al. [43]; cited from earlier work
CB2 receptor [11] = molecular target: CB2 receptor; design: method as in Bowden et al. [43]; conditions: HTRF cAMP accumulation; ref Bowden et al. [43]; cited from earlier work
CB2 receptor [12] = molecular target: CB2 receptor; design: method as in Wiley et al. [41]; conditions: versus 0.62 nM [3H]CP55,940; ref Wiley et al. [41]; cited from earlier work
[13] = design: method as in Wiley et al. [41]; conditions: receptor subtype not stated; ref Wiley et al. [41]; read-out: EC50 in [35S]GTPγS assays; cited from earlier work
CB1 receptor [14] = molecular target: CB1 receptor; design: method as in Wiley et al. [41]; conditions: versus 0.62 nM [3H]CP55,940; ref Wiley et al. [41]; cited from earlier work
[15] = compound at 10 µM, normalized to CP55,940 (1 µM)

T1 sequence (P21554 whole entry): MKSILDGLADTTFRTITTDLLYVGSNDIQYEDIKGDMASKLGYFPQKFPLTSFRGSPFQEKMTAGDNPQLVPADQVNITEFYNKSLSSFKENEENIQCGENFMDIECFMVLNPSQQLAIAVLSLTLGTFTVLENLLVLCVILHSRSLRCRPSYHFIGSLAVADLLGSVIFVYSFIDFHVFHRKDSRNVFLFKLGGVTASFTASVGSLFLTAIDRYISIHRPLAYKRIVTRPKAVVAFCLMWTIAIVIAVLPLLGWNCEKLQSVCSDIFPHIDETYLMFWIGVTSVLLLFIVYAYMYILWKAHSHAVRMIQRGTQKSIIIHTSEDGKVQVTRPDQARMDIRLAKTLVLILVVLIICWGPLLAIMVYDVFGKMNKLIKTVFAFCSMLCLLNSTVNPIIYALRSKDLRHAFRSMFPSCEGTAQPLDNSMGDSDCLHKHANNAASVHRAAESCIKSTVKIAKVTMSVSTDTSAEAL

SMILES	EC50 (human GPR18) [nM]	IC50 (human GPR18) [nM]	Human GPR18 % activation (human GPR18; agonist mode) [%]	Human GPR18 % inhibition (human GPR18; antagonist mode) [%]	Ki (human CB1 receptor [6]) [nM]	EC50 (human GPR55 [8]) [nM]	IC50 (human GPR55 [8]) [nM]	Human GPR55 % inhibition (human GPR55 [8]) [%]	Ki (human CB2 receptor [9]) [nM]	EC50 (CB1 receptor [10]) [nM]	EC50 (CB2 receptor [11]) [nM]	Human GPR55 % activation (human GPR55 [8]; agonist mode) [%]	further results
O=C(Oc1cccc2cccnc12)c1cn(CC2CCCCC2)c2ccccc12 [BB-22]													Ki (human CB1 receptor [1]): 0.217 nM
CCc1ccc(C(=O)c2cn(CCCCCF)c3ccccc23)c2ccccc12 [EAM-2201]													IC50 (human GPR55 [2]): 1860 nM
COC(=O)[C@@H](NC(=O)c1nn(Cc2ccc(F)cc2)c2ccccc12)C(C)(C)C [compound 12, MDMB-FUBINACA]	> 10000	> 10000	18	31	0.0985 ± 0.0291	> 10000	> 10000	30	0.13 ± 0.01				EC50 (CB1 receptor [3]; ref Banister et al. [38]): 3.9 nM; EC50 (human CB1 receptor [4]): 0.0641 nM; EC50 (human CB2 receptor [5]): 0.756 nM; EC50 (CB2 receptor [7]; ref Banister et al. [38]): 55 nM; hypothermal response (rats): highest hypothermal response
CC(C)(NC(=O)c1cn(CCCCCF)c2ccccc12)c1ccccc1 [compound 32, 5F-Cumyl-PICA]	> 10000	> 10000	16		1.37 ± 0.26	> 10000	> 10000		29.1 ± 2.4	< 0.1	0.37	14	EC50 (CB1 receptor [3]; ref Longworth et al. [51]): 2.8 nM; EC50 (CB2 receptor [7]; ref Longworth et al. [51]): 39.6 nM
CC(C)(NC(=O)c1nn(CC2CCOCC2)c2ccccc12)c1ccccc1 [compound 33]	> 10000	> 10000	11	9	1.23 ± 0.2	> 10000	> 10000	7	1.38 ± 0.86	0.1	0.59	11	
O=C(c1cccc2ccccc12)c1nc2ccccc2n1CCCCCF [compound 42, FUBIMINA]			42	14	502 ± 181			44	99 ± 28.4			16	Ki (CB2 receptor [12]): 23.5 nM; CB1 receptor activation in cAMP accumulation assay (in words) (human CB1 receptor [4]; [15]): partial activation; CB2 receptor activation in cAMP accumulation assay (in words) (human CB2 receptor [5]; [15]): partial activation; EC50 [13]: 2470 nM; Ki (CB1 receptor [14]): 296 nM; EC50 (human GPR18; agonist mode, read-out: Human GPR18 EC50): > 10000 nM; IC50 (human GPR18; antagonist mode, read-out: Human GPR18 IC50): > 10000 nM; EC50 (human GPR55 [8]; agonist mode, read-out: Human GPR55 EC50): > 10000 nM; IC50 (human GPR55 [8]; antagonist mode versus lysophosphatidylinositol (LPI, 1 µM), read-out: Human GPR55 IC50): > 10000 nM

From publication PMC6002460, “Pharmacological evaluation of new constituents of “Spice”: synthetic cannabinoids based on indole, indazole, benzimidazole and carbazole scaffolds” (Forensic Toxicology, 2018)
